By inhibition is commonly meant how much of the control response was suppressed.

Test in all cases: Kinase panel (mobility shift)
Common to all, as to type: biochemical

For one assay, the target named is T1, TAOK2 (Homo sapiens, UniProt Q9UL54).
T1 sequence (Q9UL54 1-1235): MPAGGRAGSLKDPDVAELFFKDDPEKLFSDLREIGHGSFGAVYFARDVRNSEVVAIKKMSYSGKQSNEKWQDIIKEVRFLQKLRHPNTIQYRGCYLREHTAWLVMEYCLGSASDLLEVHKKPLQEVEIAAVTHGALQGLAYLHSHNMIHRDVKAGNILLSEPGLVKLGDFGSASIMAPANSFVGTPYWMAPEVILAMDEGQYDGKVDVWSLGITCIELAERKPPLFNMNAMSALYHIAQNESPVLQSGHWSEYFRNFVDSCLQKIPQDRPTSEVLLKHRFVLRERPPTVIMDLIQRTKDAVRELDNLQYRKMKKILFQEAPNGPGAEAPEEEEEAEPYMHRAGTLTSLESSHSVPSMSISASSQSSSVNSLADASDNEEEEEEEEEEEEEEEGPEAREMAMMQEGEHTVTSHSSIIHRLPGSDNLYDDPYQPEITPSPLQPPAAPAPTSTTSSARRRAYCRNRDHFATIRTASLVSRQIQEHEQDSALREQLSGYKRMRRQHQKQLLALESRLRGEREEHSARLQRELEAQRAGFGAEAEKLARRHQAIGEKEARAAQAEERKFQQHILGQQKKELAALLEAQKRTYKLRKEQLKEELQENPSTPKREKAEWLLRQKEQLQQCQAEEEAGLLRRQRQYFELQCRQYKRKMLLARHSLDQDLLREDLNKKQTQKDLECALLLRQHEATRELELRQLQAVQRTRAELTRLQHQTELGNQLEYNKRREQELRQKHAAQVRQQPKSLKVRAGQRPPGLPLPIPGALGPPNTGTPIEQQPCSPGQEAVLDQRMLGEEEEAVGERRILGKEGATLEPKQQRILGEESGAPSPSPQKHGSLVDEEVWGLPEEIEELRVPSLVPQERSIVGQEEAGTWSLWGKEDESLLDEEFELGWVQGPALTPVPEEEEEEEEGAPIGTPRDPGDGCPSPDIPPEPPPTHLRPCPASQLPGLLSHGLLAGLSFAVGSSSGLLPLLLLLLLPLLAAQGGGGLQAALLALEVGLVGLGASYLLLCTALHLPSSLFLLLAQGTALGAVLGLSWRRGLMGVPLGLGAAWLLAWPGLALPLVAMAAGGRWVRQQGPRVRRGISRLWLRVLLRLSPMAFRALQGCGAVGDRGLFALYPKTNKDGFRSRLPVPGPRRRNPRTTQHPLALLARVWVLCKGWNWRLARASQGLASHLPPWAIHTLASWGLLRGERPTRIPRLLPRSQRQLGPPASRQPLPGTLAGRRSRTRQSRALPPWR
Summed up:
(§1)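 Microfluidic mobility-shift readout: product and substrate peaks are resolved by charge, and their fluorescence is compared to give enzyme activity. Enzyme, fluorescent substrate and test compound are reacted, then terminated before chip loading. Values are binned at 5 um: A 95% or greater, B 90%-94%, C 80%-89%.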

In a further assay the target is T2, DDR2 (Homo sapiens, UniProt Q16832).
T2 sequence (Q16832 22-855): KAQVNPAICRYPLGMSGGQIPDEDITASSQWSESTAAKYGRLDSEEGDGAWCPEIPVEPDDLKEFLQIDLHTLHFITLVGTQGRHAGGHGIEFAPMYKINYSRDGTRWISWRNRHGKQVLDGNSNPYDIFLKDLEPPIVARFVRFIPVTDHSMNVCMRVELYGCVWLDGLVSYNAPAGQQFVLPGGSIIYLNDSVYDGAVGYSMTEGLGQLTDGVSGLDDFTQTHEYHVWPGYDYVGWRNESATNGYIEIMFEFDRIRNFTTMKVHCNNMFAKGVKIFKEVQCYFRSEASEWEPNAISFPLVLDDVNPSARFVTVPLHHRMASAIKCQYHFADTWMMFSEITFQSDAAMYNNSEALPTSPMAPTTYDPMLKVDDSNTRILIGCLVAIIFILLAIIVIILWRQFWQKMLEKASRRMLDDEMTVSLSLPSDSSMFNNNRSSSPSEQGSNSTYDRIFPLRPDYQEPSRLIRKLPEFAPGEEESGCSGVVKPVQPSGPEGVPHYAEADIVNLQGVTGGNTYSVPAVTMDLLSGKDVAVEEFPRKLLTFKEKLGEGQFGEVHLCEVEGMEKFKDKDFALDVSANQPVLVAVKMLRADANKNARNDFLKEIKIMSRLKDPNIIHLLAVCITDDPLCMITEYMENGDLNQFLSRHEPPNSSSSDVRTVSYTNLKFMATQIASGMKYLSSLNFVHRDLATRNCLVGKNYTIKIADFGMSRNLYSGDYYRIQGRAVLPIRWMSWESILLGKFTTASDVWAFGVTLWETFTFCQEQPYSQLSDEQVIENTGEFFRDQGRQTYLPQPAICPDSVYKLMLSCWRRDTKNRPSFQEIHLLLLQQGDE
In short, it runs like this: as §1

In another assay the target is TIE2 (Homo sapiens, UniProt Q02763). Summed up: as §1
The next assay has as its target PDGFR-a (Homo sapiens, UniProt P16234). Summed up: as §1

Each structure is given as a SMILES string. Bounds are passed on as bounds.

PDGFR-a, sequence (P16234 24-1089, species assumed): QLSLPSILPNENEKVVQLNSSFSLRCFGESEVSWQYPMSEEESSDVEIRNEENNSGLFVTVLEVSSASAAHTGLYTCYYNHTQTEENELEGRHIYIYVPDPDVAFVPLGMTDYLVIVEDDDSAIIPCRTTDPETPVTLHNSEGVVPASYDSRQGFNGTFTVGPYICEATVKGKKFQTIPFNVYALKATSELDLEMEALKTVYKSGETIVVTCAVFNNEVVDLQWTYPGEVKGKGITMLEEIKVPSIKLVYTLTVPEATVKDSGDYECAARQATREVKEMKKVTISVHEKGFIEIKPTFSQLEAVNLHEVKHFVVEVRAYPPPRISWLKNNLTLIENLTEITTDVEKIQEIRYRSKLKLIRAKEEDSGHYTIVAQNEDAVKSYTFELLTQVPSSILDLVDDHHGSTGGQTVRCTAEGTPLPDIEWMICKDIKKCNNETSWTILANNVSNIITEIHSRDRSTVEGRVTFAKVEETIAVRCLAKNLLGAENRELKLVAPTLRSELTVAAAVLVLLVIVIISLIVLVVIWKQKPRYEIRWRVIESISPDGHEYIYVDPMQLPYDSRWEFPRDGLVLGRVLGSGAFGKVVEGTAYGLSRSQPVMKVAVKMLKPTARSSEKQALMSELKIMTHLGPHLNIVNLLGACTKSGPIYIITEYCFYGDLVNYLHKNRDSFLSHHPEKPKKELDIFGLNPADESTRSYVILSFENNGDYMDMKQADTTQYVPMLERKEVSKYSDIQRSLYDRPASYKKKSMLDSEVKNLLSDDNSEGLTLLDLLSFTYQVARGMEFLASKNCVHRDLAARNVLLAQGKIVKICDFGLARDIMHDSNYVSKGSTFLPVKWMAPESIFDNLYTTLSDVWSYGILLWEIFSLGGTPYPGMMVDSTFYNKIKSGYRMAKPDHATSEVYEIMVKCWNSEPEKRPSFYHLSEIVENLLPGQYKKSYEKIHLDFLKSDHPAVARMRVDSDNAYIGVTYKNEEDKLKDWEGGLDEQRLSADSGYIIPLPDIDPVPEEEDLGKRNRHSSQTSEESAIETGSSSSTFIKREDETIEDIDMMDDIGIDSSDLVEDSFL
TIE2, sequence (Q02763 23-1124, species assumed): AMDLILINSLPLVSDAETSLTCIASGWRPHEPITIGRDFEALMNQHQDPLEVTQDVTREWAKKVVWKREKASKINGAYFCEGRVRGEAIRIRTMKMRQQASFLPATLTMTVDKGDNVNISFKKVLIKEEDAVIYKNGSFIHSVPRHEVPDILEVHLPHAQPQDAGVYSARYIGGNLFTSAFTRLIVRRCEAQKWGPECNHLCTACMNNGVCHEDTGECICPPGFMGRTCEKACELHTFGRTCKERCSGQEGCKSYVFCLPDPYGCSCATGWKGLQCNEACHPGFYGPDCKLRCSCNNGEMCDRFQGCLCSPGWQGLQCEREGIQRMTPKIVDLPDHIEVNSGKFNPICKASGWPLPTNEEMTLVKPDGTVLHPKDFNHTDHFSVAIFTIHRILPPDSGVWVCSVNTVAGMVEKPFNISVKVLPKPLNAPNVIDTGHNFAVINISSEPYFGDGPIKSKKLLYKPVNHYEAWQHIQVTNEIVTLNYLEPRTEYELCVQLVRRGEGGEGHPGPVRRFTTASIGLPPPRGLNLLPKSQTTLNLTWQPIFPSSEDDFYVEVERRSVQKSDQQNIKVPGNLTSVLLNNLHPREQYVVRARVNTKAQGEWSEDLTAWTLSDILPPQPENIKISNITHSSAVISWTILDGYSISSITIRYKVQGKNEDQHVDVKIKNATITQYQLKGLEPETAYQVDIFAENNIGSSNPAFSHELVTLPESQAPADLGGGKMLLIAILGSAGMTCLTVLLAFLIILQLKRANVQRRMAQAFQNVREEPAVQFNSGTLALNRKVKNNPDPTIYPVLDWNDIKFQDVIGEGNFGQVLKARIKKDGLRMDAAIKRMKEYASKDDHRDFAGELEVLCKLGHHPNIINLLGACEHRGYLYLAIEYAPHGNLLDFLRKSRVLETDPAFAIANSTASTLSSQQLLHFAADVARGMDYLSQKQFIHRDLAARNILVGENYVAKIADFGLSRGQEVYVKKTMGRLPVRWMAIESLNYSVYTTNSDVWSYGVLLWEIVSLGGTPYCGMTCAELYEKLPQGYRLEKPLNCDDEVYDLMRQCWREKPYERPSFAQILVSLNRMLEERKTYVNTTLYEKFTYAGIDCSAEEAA

For `CSc1nc(C(=O)Nc2ccc(Oc3ccnc(N)c3Cl)c(F)c2)c(-c2ccc(F)cc2)o1` [Compound 1], the inhibition at 5 µM at TAOK2 is less than 50%; on DDR2 it was 50 to 79%; on TIE2, less than 50%; at PDGFR-a it was less than 50%.
`CSc1nc(C(=O)Nc2ccc(Oc3cc4cnn(C)c4cc3Br)c(F)c2)c(-c2ccc(F)cc2)o1` [Compound 2]: the inhibition at 5 µM is less than 50% on TAOK2, 50 to 79% at DDR2, 50 to 79% at TIE2 and less than 50% at PDGFR-a.
Turning to `CNC(=O)c1cc(Oc2ccc(NC(=O)c3nc(SC)oc3-c3ccc(F)cc3Cl)cc2)ccn1` [Compound 3], the inhibition at 5 µM is less than 50% at TAOK2, 80 to 89% at DDR2, 50 to 79% at TIE2 and 50 to 79% on PDGFR-a.
With `CNC(=O)c1cc(Oc2ccc(NC(=O)c3nc(SC)oc3-c3ccc(F)c(F)c3)cc2)ccn1` [Compound 4], the inhibition at 5 µM is less than 50% at TAOK2, 80 to 89% on DDR2, less than 50% at TIE2 and less than 50% on PDGFR-a.
Take `CNC(=O)c1cc(Oc2ccc(NC(=O)c3nc(SC)oc3-c3ccc(Cl)s3)cc2)ccn1` [Compound 5]: the inhibition at 5 µM is less than 50% at TAOK2, 80 to 89% on DDR2, less than 50% at TIE2 and less than 50% on PDGFR-a.
With `CNC(=O)c1cc(Oc2ccc(NC(=O)c3nc(SC)oc3-c3ccc(F)cc3F)cc2)ccn1` [Compound 6], the inhibition at 5 µM on TAOK2 is less than 50%; on DDR2, 80 to 89%; at TIE2 it was 80 to 89%; on PDGFR-a it was less than 50%.
For the compound `CNC(=O)c1cc(Oc2ccc(NC(=O)c3nc(SC)oc3-c3ccc(OC)cc3)cc2)ccn1` [Compound 7], the inhibition at 5 µM at TAOK2 is less than 50%; at DDR2, 80 to 89%; on TIE2, less than 50%; at PDGFR-a, less than 50%.
On to `CSc1nc(C(=O)Nc2ccc(Oc3ccnc(-c4cnn(C)c4)c3)c(F)c2)c(-c2ccc(F)cc2)o1` [Compound 11], for which the inhibition at 5 µM is less than 50% at TAOK2, no less than 95% at DDR2, 80 to 89% on TIE2 and 90 to 94% on PDGFR-a.
Take `CNC(=O)c1cc(Oc2ccc(NC(=O)c3nc(SC)oc3-c3ccc(F)cc3F)cc2F)ccn1` [Compound 12]: the inhibition at 5 µM at TAOK2 was less than 50%; at DDR2, 80 to 89%; at TIE2, 50 to 79%; on PDGFR-a, less than 50%.
With `CNC(=O)c1cc(Oc2ccc(NC(=O)c3nc(S(C)(=O)=O)sc3-c3ccc(F)cc3)cc2F)ccn1` [Compound 13], the inhibition at 5 µM at TAOK2 was less than 50%; on DDR2 it was 80 to 89%; at TIE2, 50 to 79%; at PDGFR-a it was 50 to 79%.
`CNC(=O)c1cc(Oc2ccc(NC(=O)c3nc(NC)oc3-c3ccc(F)cc3)cc2F)ccn1` [Compound 14]: the inhibition at 5 µM is 80 to 89% at TAOK2, no less than 95% at DDR2, 50 to 79% on TIE2 and less than 50% at PDGFR-a.
The like results for `CNC(=O)c1cc(Oc2ccc(NC(=O)c3nc(OC)oc3-c3ccc(F)cc3)cc2F)ccn1` [Compound 15] were, in that order, less than 50%, 90 to 94%, less than 50% and 50 to 79%.
For `CNC(=O)c1cc(Oc2ccc(NC(=O)c3nc(SC)oc3-c3ccc(F)s3)cc2F)ccn1` [Compound 16], the inhibition at 5 µM on TAOK2, on DDR2, at TIE2 and on PDGFR-a was less than 50% each time.
In the case of `CNC(=O)c1cc(Oc2ccc(NC(=O)c3nc(NC)oc3-c3ccc(F)s3)cc2F)ccn1` [Compound 17], the inhibition at 5 µM on TAOK2 is less than 50%; on DDR2 it was 50 to 79%; at TIE2, less than 50%; on PDGFR-a, less than 50%.
As for `CNC(=O)c1cc(Oc2c(F)cc(NC(=O)c3nc(NC)sc3-c3ccc(F)cc3)cc2F)ccn1` [Compound 19], the inhibition at 5 µM at TAOK2 was less than 50%; at DDR2, 80 to 89%; on TIE2, 50 to 79%; on PDGFR-a, 50 to 79%.
Consider `CNC(=O)c1cc(Oc2ccc(NC(=O)c3nc(NC)sc3-c3ccc(F)cc3F)cc2F)ccn1` [Compound 21], for which the inhibition at 5 µM on TAOK2 was less than 50%; at DDR2, 50 to 79%; at TIE2, 50 to 79%; on PDGFR-a, less than 50%.
With `CNC(=O)c1cc(Oc2ccc(NC(=O)c3nc(NC)sc3-c3ccc(F)cc3C)cc2F)ccn1` [Compound 23], the inhibition at 5 µM at TAOK2 is 50 to 79%; on DDR2, 50 to 79%; at TIE2 it was 50 to 79%; on PDGFR-a it was less than 50%.
For the compound `CNC(=O)c1cc(Oc2ccc(NC(=O)c3nc(OC)oc3-c3ccc(F)c(F)c3)cc2F)ccn1` [Compound 24], the inhibition at 5 µM on TAOK2 is less than 50%; at DDR2, 80 to 89%; on TIE2, less than 50%; on PDGFR-a, less than 50%.
Take `CNC(=O)c1cc(Oc2ccc(NC(=O)c3nc(OC)oc3-c3ccc(F)s3)cc2F)ccn1` [Compound 25]: the inhibition at 5 µM at TAOK2 is less than 50%; at DDR2, 50 to 79%; at TIE2 it was less than 50%; on PDGFR-a, less than 50%.
Take `CNC(=O)c1cc(Oc2ccc(NC(=O)c3nc(C4CC4)oc3-c3ccc(F)cc3)cc2F)ccn1` [Compound 26]: the inhibition at 5 µM on TAOK2 lay within 50 to 79%; at DDR2, 80 to 89%; on TIE2, 80 to 89%; on PDGFR-a, 50 to 79%.
As to `CSc1nc(C(=O)Nc2ccc(Oc3ccnc(C(=O)NC4CNC4)c3)c(F)c2)c(-c2ccc(F)s2)o1` [Compound 27], the inhibition at 5 µM at TAOK2, at DDR2, on TIE2 and at PDGFR-a was less than 50% throughout.
For `CSc1nc(C(=O)Nc2ccc(Oc3ccnc(C(=O)NC4COC4)c3)c(F)c2)c(-c2ccc(F)s2)o1` [Compound 28], the inhibition at 5 µM at TAOK2, on DDR2, at TIE2 and at PDGFR-a was less than 50% in each case.
On to `CSc1nc(C(=O)Nc2ccc(Oc3ccnc(C(=O)NC4CNC4)c3)c(F)c2)c(-c2ccc(F)cc2)o1` [Compound 29], for which the inhibition at 5 µM at TAOK2 was 50 to 79%; at DDR2, 50 to 79%; at TIE2, less than 50%; at PDGFR-a it was less than 50%.

The record behind these values is patent US11629143B2, “HipK4 inhibitors and uses thereof” (Vibliome Therapeutics, LLC, priority 2020, dated 2023).
